In assay [1] the test system is HS-PSS. The assay can be described thus: relative IC50 (inflection point of fitted dose-response curve, CellTox-Green cytotoxicity, 72 h; top asymptote may be below 50%); higher = less potent. An outline of the steps:
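MPNST cell lines and primary human Schwann cells were incubated 72 h at 37 °C in 384-well plates holding five 10-fold compound dilutions. CellTox-Green was added before seeding at a final 1:1000 dilution and reported fluorescence from DNA released by disrupted cells. Signals were scaled to vehicle and positive-control wells, and cultures failing plate quality control were dropped. Drug sensitivity score and relative IC50 come from four-parameter logistic fits, with IC50 censored at the top concentration.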

Assay [2] relates to HS-Sch-2. The assay can be described thus: relative IC50 (inflection point of fitted dose-response curve, CellTiter-Glo viability, 72 h; top asymptote may be below 50% inhibition); higher = less potent. An outline of the steps:
(§1)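 MPNST cell lines and primary human Schwann cells (750–1000 cells per well) went into 384-well plates preprinted with each compound at five concentrations in 10-fold steps. Plates were incubated 72 h at 37 °C, 5% CO2. Viability was read as CellTiter-Glo ATP luminescence, scaled between vehicle and positive-control wells, with duplicates averaged where present. Percent inhibition is at the top concentration; drug sensitivity score and relative IC50 (censored at top concentration) come from four-parameter logistic fits.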

Assay [3] relates to YST-1. The description is as above. An outline of the steps:
as §1

Assay [4] concerns HS-PSS. The description is as above. The method, boiled down: as §1

With `CCOc1ccn(-c2ccc(F)cc2)c(=O)c1C(=O)Nc1ccc(Oc2ccnc(N)c2Cl)c(F)c1`, the “relative IC50” value in assay [1], in assay [2] and in assay [3] was over 2500 nM in each case.

With `COc1ccc(Cn2ccc3ccc(C(=O)NO)cc32)cc1`, the “relative IC50” value is over 10000 nM in assay [1], 3750 nM in assay [2] and 1600 nM in assay [3].

As to `Cc1cccc(CC(=O)N2CCc3c2ccc(-c2cn(C)c4ncnc(N)c24)c3F)n1`, the “relative IC50” value in assay [4] was 993 nM.

Regarding `O=c1[nH]c(C2CCCN2)nc2c1oc1ccc(Cl)cc12` (stereo not given), the “relative IC50” value in assay [4] was found to be 1500 nM; in assay [3], 1220 nM.

As to `O=C(Nc1cccc(C(F)(F)F)c1)Nc1cc(S(=O)(=O)NC2CC2)ccc1-c1ccsc1` [AGI-6780], the results for the “relative IC50” value in assay [1] and in assay [2] were over 10000 nM and 1400 nM, respectively.

On to `COc1ccc2c(OCc3nnc4ccc(-c5ccccc5)nn34)ccnc2c1` [AMG-208], for which the “relative IC50” value in assay [1], in assay [2] and in assay [3] was over 2500 nM in each case.

For the molecule `CC(C)[C@@H](CS(=O)(=O)C(C)C)N1C(=O)[C@@](C)(CC(=O)O)C[C@H](c2cccc(Cl)c2)[C@H]1c1ccc(Cl)cc1` [AMG-232], the “relative IC50” value is over 1000 nM in assay [1], over 1000 nM in assay [2] and 190 nM in assay [3].

For the molecule `Cc1csc(-c2nnc(Nc3ccc(Oc4ncccc4-c4ccnc(N)n4)cc3)c3ccccc23)c1` [AMG-900], the “relative IC50” value is over 1000 nM in assay [1], 326 nM in assay [2] and 11 nM in assay [3].

On to `CC1CCC(n2c3cnccc3c3cnc(Nc4ccc5c(n4)CCN(C(=O)CO)C5)nc32)CC1` (stereo not given) [AMG-925], for which the “relative IC50” value in assay [1] and in assay [4] was over 1000 nM throughout.

On to `COCC1(CO)C(=O)C2CCN1CC2` (stereo not given) [APR-246], for which the “relative IC50” value in assay [1], in assay [2] and in assay [3] was over 10000 nM each time.

For the molecule `NC1(C(=O)N[C@@H](CCO)c2ccc(Cl)cc2)CCN(c2ncnc3[nH]ccc23)CC1` [AZD-5363], the “relative IC50” value in assay [1] is over 10000 nM; in assay [2], 3470 nM; in assay [3], 2090 nM.

In the case of `CCN1CCN(Cc2ccc(Nc3ncc(F)c(-c4cc(F)c5nc(C)n(C(C)C)c5c4)n3)nc2)CC1` [Abemaciclib], the “relative IC50” value in assay [1] was over 2500 nM; in assay [2], 1010 nM; in assay [3], 27.5 nM.

For the molecule `Cn1ncc(Cl)c1-c1cc(C(=O)N[C@H](CN)Cc2cccc(F)c2)sc1Cl` [Afuresertib], the “relative IC50” value in assay [1] was over 1000 nM; in assay [2], over 1000 nM; in assay [3], 327 nM.

As for `N#CC1(c2ccc(NC(=O)c3cccnc3NCc3ccncc3)cc2)CCCC1` [Apatinib], the “relative IC50” value in assay [1] and in assay [2] was over 10000 nM throughout.

As to `Nc1nc(Nc2ccc3c(c2)CC[C@@H](N2CCCC2)CC3)nn1-c1cc2c(nn1)-c1ccccc1CCC2` [BGB324], the “relative IC50” value in assay [1] was over 10000 nM; in assay [2] it was 570 nM; in assay [3] it was 2140 nM.

In the case of `CC[C@H](NC(=O)[C@H](C)NC)C(=O)N1C[C@@H](O)C[C@H]1Cc1c(-c2[nH]c3cc(F)ccc3c2C[C@@H]2C[C@H](O)CN2C(=O)[C@H](CC)NC(=O)[C@H](C)NC)[nH]c2cc(F)ccc12` [Birinapant], the “relative IC50” value in assay [1], in assay [2] and in assay [3] was over 1000 nM in each case.

`C[C@H](Nc1ncnc2nc[nH]c12)c1cc2cccc(Cl)c2c(=O)n1-c1ccccc1` [Duvelisib]: in assay [4], the “relative IC50” value was over 500 nM.

With `NS(=O)(=O)NCCNc1nonc1/C(=N/O)Nc1ccc(F)c(Br)c1` [Epacadostat], the “relative IC50” value in assay [1] and in assay [4] was over 10000 nM throughout.

On to `O=C(Nc1nc2cccc(-c3ccc(CN4CCS(=O)(=O)CC4)cc3)n2n1)C1CC1` [Filgotinib], for which the “relative IC50” value is over 10000 nM in assay [1], 2680 nM in assay [2] and 3690 nM in assay [3].

As to `CNc1nc(Nc2cn(C(C)(C)C#N)nc2C)ncc1C(F)(F)F` [GNE-0877], the “relative IC50” value in assay [1], in assay [2] and in assay [3] was over 1000 nM in each case.

Regarding `CCCNC(=O)Nc1ccc(Oc2ncnc3cc(OC)c(OC)cc23)cc1Cl` [KRN-633], the “relative IC50” value in assay [1], in assay [2] and in assay [3] was over 2500 nM each time.

Take `O=C(c1ccc(/C=C/c2n[nH]c3ccccc23)cc1)N1CCNCC1` [KW-2449]: the entries for the “relative IC50” value in assay [1], in assay [2] and in assay [3] were over 2500 nM, over 2500 nM and 509 nM, respectively.

In the case of `COc1cc2nccc(Oc3ccc(NC(=O)NC4CC4)c(Cl)c3)c2cc1C(N)=O` [Lenvatinib], the “relative IC50” value in assay [1] and in assay [4] was over 2500 nM throughout.

`CNC(=O)c1cccc2cc(Oc3ccnc4cc(OCC5(N)CC5)c(OC)cc34)ccc12` [Lucitanib]: the “relative IC50” value was over 10000 nM in assay [1], 3710 nM in assay [2] and 1420 nM in assay [3].

As to `O=C(c1cccc(Cl)c1F)N1CCN(Cc2cccc(Nc3nccs3)n2)CC1` [MK-8745], the “relative IC50” value was over 2500 nM in assay [1], 623 nM in assay [2] and 231 nM in assay [3].

In the case of `CN(C)C(=N)NC(=N)N` [Metformin], the “relative IC50” value in assay [1], in assay [2] and in assay [3] was over 100000 nM in each case.

Turning to `CCN1CCN(Cc2ccc(-c3cc4c(N[C@H](C)c5ccccc5)ncnc4[nH]3)cc2)CC1` [NVP-AEE788], the “relative IC50” value in assay [1] and in assay [2] was over 2500 nM in each case.

For `CNC(=O)c1ccc(-c2cnc3ncc(Cc4ccc5ncccc5c4)n3n2)cc1F` [NVP-INC280], the “relative IC50” value in assay [1] and in assay [4] was over 1000 nM throughout.

In the case of `Cc1[nH]c(/C=C2\C(=O)Nc3ccccc32)c(C)c1CCC(=O)O` [Orantinib], the “relative IC50” value in assay [1] was 205 nM; in assay [2] it was over 10000 nM.

In the case of `O=C(Nc1cc(Cl)cc2c1[nH]c1cnccc12)c1cccnc1` [PS-1145], the “relative IC50” value in assay [1] and in assay [2] was over 25000 nM in each case.

Regarding `FC(F)(F)c1ccc(CNc2ccc(Cc3c[nH]c4ncc(Cl)cc34)cn2)cn1` [Pexidartinib], the “relative IC50” value was over 10000 nM in assay [1] and 1740 nM in assay [4].

With `c1cc(CN2CCCNCCNCCCNCC2)ccc1CN1CCCNCCNCCCNCC1` [Plerixafor], the “relative IC50” value in assay [1], in assay [2] and in assay [3] was over 10000 nM each time.

Take `CC[C@H](C)C(=O)O[C@H]1C[C@H](O)C=C2C=C[C@H](C)[C@H](CC[C@@H](O)C[C@@H](O)CC(=O)O)[C@H]21` [Pravastatin]: the “relative IC50” value in assay [1], in assay [2] and in assay [3] was over 10000 nM throughout.

For `Cc1nc(=O)c2cc(CN(C)c3ccc(C(=O)N[C@@H](CCC(=O)O)C(=O)O)s3)ccc2[nH]1` [Raltitrexed], the “relative IC50” value is over 1000 nM in assay [1], 22.7 nM in assay [2] and 11.2 nM in assay [3].

Regarding `O=C(Nc1cccc(Cl)c1)Nc1ncc(CCNc2ncnc3ccsc23)s1` [SNS-314], the “relative IC50” value was over 1000 nM in assay [1], 185 nM in assay [2] and 8.84 nM in assay [3].

On to `CNC(=O)CN1CCC(Oc2cc3c(Nc4cccc(Cl)c4F)ncnc3cc2OC)CC1` [Sapitinib], for which the “relative IC50” value in assay [1] and in assay [4] was over 1000 nM in each case.

In the case of `CCc1nc(-c2cccc(C)c2)c(-c2ccnc(NC(=O)c3ccccc3)c2)s1` [TAK-715], the “relative IC50” value in assay [1] is over 10000 nM; in assay [2] it was 1210 nM.

With `Nc1nc(N)c2nc(-c3cccc(O)c3)c(-c3cccc(O)c3)nc2n1` [TG100-115], the “relative IC50” value in assay [1] and in assay [4] was over 10000 nM each time.

For the molecule `Cn1ncnc1[C@H]1c2n[nH]c(=O)c3cc(F)cc(c23)N[C@@H]1c1ccc(F)cc1` [Talazoparib], the “relative IC50” value in assay [1] is over 1000 nM; in assay [2], 105 nM; in assay [3] it was 9.15 nM.

For `C[C@@H]1CN(Cc2ccc(F)cc2)[C@@H](C)CN1C(=O)c1cc2c(C(=O)C(=O)N(C)C)cn(C)c2cc1Cl` [Talmapimod], the entries for the “relative IC50” value in assay [1], in assay [2] and in assay [3] were over 10000 nM, over 10000 nM and 283 nM, respectively.

Regarding `COc1cccc2c1c(O)c(C(=O)N(C)c1ccc(C(F)(F)F)cc1)c(=O)n2C` [Tasquinimod], the “relative IC50” value in assay [1] and in assay [2] was over 10000 nM each time.

`COC(=O)c1ccc2c(c1)[nH]c1ncnc(NCCCN3CCCCC3)c12` [UM729]: the “relative IC50” value in assay [1] is over 10000 nM; in assay [2] it was 3140 nM; in assay [3], 560 nM.

Turning to `NC(=O)c1cccc(-c2cccc(OC(=O)NC3CCCCC3)c2)c1` [URB597], the “relative IC50” value in assay [1], in assay [2] and in assay [3] was over 1000 nM throughout.

As to `CS(=O)(=O)c1ccc(-c2cnc(N)c(C(=O)Nc3ccccc3)n2)cc1` [VE-821], the “relative IC50” value in assay [1], in assay [2] and in assay [3] was over 10000 nM throughout.

Take `O=C(Nc1ccc(-c2ccnc(Nc3ccc(N4CCOCC4)cc3)n2)cc1)[C@H]1CCCN1` [XL019]: the “relative IC50” value in assay [1] is over 10000 nM; in assay [4], 2850 nM.

By relative IC50 is commonly meant the concentration at the midpoint between the plateaus of the fitted inhibition curve.

The record behind these values is the supplement of paper PMC5579334.
